From patent US4123456A, “Novel 11-hydroxy-9-keto-5,6-cis-13,14-cis-prostadienoic acid derivatives” (American Cyanamid Company, priority 1977, dated 1978)

What was measured:
[1] = tested on: ulcerogenic properties of indomethacin; experiment: protection against the ulcerogenic properties of indomethacin; assay type: in vivo, Rats; settings: 2.5 or lower considered active
Experimental: The compounds of this invention provide protection against the ulcerogenic properties of indomethacin. This assay was carried out in the following manner.
Rats were starved for 48 hours (water was given ad libitum). Indomethacin (20 mg./kg. of body weight) was administered by the subutaneous route and one-half the dose of the test compound was administered by gavage at the same time. After 3 hours, the second half of the test compound was administered also by Gavage. Five hours after the administration of indomethacin the animals were decapitated and the stomachs removed. The stomachs were washed with distilled water, blotted on gauze, cut along the larger curvature, and the contents rinsed with distilled water. The stomachs were spread out, pinned on a cork and visualized under magnifying glass for ulcers. The criteria for scoring of ulcers was as previously reported. [Abdel-Galil et al. Brit. J. Pharmac. Chemotherapy 33:1-14 (1968)].
1 Petechial hemmorhage or pin point ulcer
3 Many ulcers, a few large
4 Many ulcers, mainly large
Control animals treated with indomethacin but not test compound consistently give scores of about 3.0-3.5. Control animals treated with neither indomethacin nor test compound give scores of about 0.5-0.8. Compounds producing a score of 2.5 or lower are considered to be active.

gastric acid secretion = gastric acid secretion inhibition, "Shay rat" procedure; assay type: in vivo, rats (male, CFE strain); settings: intraduodenal dose 100 mg./kg. of body weight; 20% or more considered active
Experimental: The novel compounds of the present invention are also effective inhibitors of gastric acid secretion and of ulcer development in experimental animals, and thus are potentially valuable as agents for the control of gastric acid secretion and of gastric erosion and an anti-ulcer agents. Gastric acid secretion inhibitory action is usually measured by the "Shay rat" procedure^(1,2) with some modifications as follows.
The rats (male, CFE strain) were starved for 48 hours (water was given ad libitum) to permit evacuation of stomach contents. On the morning of the experiment, under ether anesthesia, the abdominal region was shaved and a midline incision (1-1 1/2") was made with a scapel. […]
The abdominal cavity was exposed by cutting with scissors and the esophagus close to the stomach was clamped off with a hemostat, the stomach was removed by cutting above the hemostat (the esophagus was cut) and between the two sutures. […] The supernatant was collected, volume measured and recorded, 2 drops of a phenolphthalein indicator (1% in 95% ethanol) were added and the solution was titrated with 0.02N NaOH (or with 0.04N NaOH when large volumes of stomach contents were encountered) to pH 8.4 (because of usual coloring of the stomach contents, phenolphthalein was only used to permit visual indication that the end point was near) and the amount of acid present was calculated. […]

[2] = total oral dose 25 mg./kg., control score 3.2

CCCCCC(O)/C=C/[C@H]1CCC(=O)[C@@H]1CCCCCC(CC)C(=O)O (relative stereo)
Score, Treated ([1]; total oral dose 50 mg./kg., control score 3.0): 2.2

CCCCCC(O)/C=C/[C@H]1CCC(=O)[C@]1(C)CCCCCCC(=O)O (relative stereo) [8β-methyl-9-oxo-15-hydroxy-13-trans-prostenoic acid]
Score, Treated ([1]; total oral dose 12.5 mg./kg., control score 3.0): 2.0

CCCCC[C@@H](O)/C=C/[C@H]1CCC(=O)[C@@H]1CCCCSCC(=O)O (relative stereo) [9-oxo-3-thia-15-epi-hydroxy-13-trans-prostenoic acid]
Score, Treated [1, 2]: 2.3

CCCCCC(O)/C=C/[C@H]1CCC(=O)[C@@H]1CCCCC(C)(C)CC(=O)O (relative stereo) [9-oxo-15-hydroxy-3,3-dimethyl-13-trans-prostenoic acid]
Percent Inhibition of gastric acid secretion (gastric acid secretion): 51%

CCCCCC(O)/C=C/[C@H]1CCC(=O)[C@@H]1CCCCSCC(=O)O (relative stereo) [9-oxo-15-hydroxy-3-thia-13-trans-prostenoic acid]
Score, Treated [1, 2]: 1.8

CCCCCC(O)/C=C\[C@H]1CCC(=O)[C@@H]1CCCCCCC(=O)O (relative stereo) [9-oxo-15-hydroxy-13-cis-prostenoic acid, 15-hydroxy-9-oxo-13-cis-prostenoic acid]
Score, Treated ([1]; total oral dose 100 mg./kg., control score 3.0): 1.3

CCCCC(CC)C(O)/C=C/[C@H]1CCC(=O)[C@@H]1CCCCCCC(=O)O (relative stereo) [9-oxo-15-hydroxy-16-ethyl-13-trans-prostenoic acid]
Score, Treated [1, 2]: 1.7
